“Also recorded” adds a separate entry of the source.
Assays:
NF-κB = conditions: intestinal epithelial cells (IECs); Bansal et al. 2010; cited from earlier work
CD4+ CD25− naïve T cells [1] = assay: In vitro naïve T cell differentiation, Th17-skew (IL-17+ by FACS); assay type: cell-based, C57BL/6 mice; conditions: for effect on % IL-17+ cells / Th17 differentiation: vs DMF control
Method: Mesenteric lymph node (MLN) and spleen are harvested from WT or FOXP3^EGFP C57Bl/6 mice and homogenized. Spleen tissue is subjected to red blood cell lysis and pooled into a single cell suspension for counting. Counted cells are resuspended in sterile FACS buffer (PBS++ with 05% bovine serum albumin) at a concentration of ˜5×10^7 cells/mL and stained for 45 minutes at 4° C. with anti-CD4 and anti-CD25 fluorophore-conjugated monoclonal antibodies (mAb). After two washes, the stained cells are resuspended at ˜6×10^6 cells/mL in FACS buffer and immediately sorted. […] TDMMs are solubilized in DMF at 2 M and used at desired concentrations (e.g., 0.01, 0.1, 0.5 and 1.0 mM) in growth media; DMF in growth media (0.05%) is used as a solvent control.
The % of Treg or Th17 cells are determined based on the expression of signature transcription factors, FoxP3 and Rorγt, respectively. In addition, signature cytokine markers for Treg and Th17, TGFβ or IL-17, respectively, among others are measured using intracellular cytokine staining. Since it is possible that a cell could be positive for FoxP3 and still express some IL-17, the final % of Tregs are determined as the cell population that is FoxP3+TGFβ+ Rorγt-IL-17−. Similarly, the % of Th17 cells are determined as the population that is FoxP3-TGFβ− Rorγt+IL-17+.
(§1) CD4+ CD25− T cells were isolated to high purity (>98%) from the pooled spleen and mesenteric lymph nodes of C57BL/6 mice (Jackson Labs) with a BD FACS Aria II flow cytometer. Fc Block (BD), αCD4-efluor450 (eBioscience clone GK1.5) and αCD25-PECy7 (eBioscience clone PC61.5) antibodies were used for staining before sorting.
(§2) For Th1-skew: 5 ng/mL IL-12 (Peprotech cat. #210-12) and 10 µg/mL αIL-4 (BioXCell clone 11B11) were added to culture. For Th2-skew: 10 ng/mL IL-4 (Peprotech) and 10 μg/mL αIFN-γ (BioXCell clone R4-6A2) were added to culture. For Th17-skew: 10 ng/mL IL-6 (Peprotech), 5 ng/mL IL-23 (R&D), 0.5 ng/mL TGF-β (Peprotech), 10 μg/mL al-4 (BioXCell clone 11B11), and 10 μg/mL αIFN-γ (BioXCell clone R4-6A2) were added to culture. For Treg-skew: 2 ng/mL TGF-β (Peprotech) and 100 U/mL IL-2 (Roche) were added to culture. Sodium Propionate, sodium acetate, sodium butyrate and sodium chloride (all from Sigma-Aldrich) were solubilized in media and added to culture. Indole was solubilized in DMF (both from Sigma-Aldrich) at 2M and brought to final concentration in media. MGCD0103 (Selleck Chemicals) was solubilized in DMF at 2 mM and brought to final concentration in media. A 0.05% DMF solvent control was used for all experiments.

[2] = tested on: wild-type or AhR KO T cells; assay: T cell differentiation in wild-type vs AhR KO T cells; assay type: cell-based, mice
Method: The aryl hydrocarbon receptor (AhR) is implicated in the differentiation of Treg and Th17 cells. The role of AhR was assessed with respect to indole's effect on Treg augmentation. Wild-type and AhR KO naïve T-cells were conditioned with increasing amounts of indole and then assessed for % of FoxP3 expression. […] Additionally, the role of AhR was assessed with respect to indole's effect on Th17 inhibition.
The AhR knockout was further investigated for iTreg homing markers, CD62L and α4β7, as described above.
Next, the AhR knockout was further investigated for the impact of AhR on 5-HI-mediated T cell differentiation.

DSS colitis = DSS colitis model; conditions: 5% DSS 7 days, then indole 7 days; wild-type vs Rag-deficient mice
Method: FIG. 32A: Wild-type C57B16 mice were treated with 5% DSS, or not, in drinking water for 7 days. […] Individual mouse weight was recorded daily throughout experiment as a measure of inflammation. FIG. 32B: Mice were treated as in FIG. 32A, only mice were Rag-deficient mice, which lack lymphocytes (T- and B-cells).
For FIG. 32A, wild-type C57B16 mice were treated with 5% DSS, or not, in drinking water for 7 days. […] Individual mouse weight was recorded daily throughout experiment as a measure of inflammation. For FIG. 32B, Rag-deficient mice, which lack lymphocytes (T- and B-cells), were treated as in FIG. 32A and individual weight was recorded.

mTOR = mTOR activation (% P-S6) in conditioned T cells; assay type: cell-based; conditions: matured conditioned T cells
Description: The mechanistic target of rapamycin (mTOR) is a core component in multiple protein complexes that have significant influence on various cellular processes including cell growth, differentiation, and even enteropathies in the intestine. Accordingly, the interaction of indole and 5-HI on mTor activation was investigated.

CD4+ CD25− naïve T cells [3] = assay: In vitro naïve T cell differentiation, Th2-skew (IL-4+); assay type: cell-based, C57BL/6 mice; conditions: Th2 skewing conditions; vs solvent control
Method: When naïve CD4+ CD25− cells were cultured 72 hours in αCD3/28 coated wells with Th0-, Th1- or Th2-skew cytokines and indole or solvent control, followed by stimulation with PMA, Ionomycin and Golgi Plug for the last 5 hours of culture, no effect on the % of Th1 and Th2 cells was observed (in contrast to the significant effect that indole has on Treg and Th17 cells; see FIGS. 2A and 2B).
as §1
as §2, with “Indole was solubilized in DMF (both from Sigma-Aldrich) at 2M and brought to final concentration in media. MGCD0103 (Selleck Chemicals) was solubilized in DMF at 2 mM and brought to final concentration in media. A 0.05% DMF solvent control was used for all experiments.” left out

IL-6 receptor / pSTAT3 = assay: IL-6 receptor levels and STAT3 activity; assay type: cell-based; conditions: vs control
Method: Indole and 5-HI were assessed for impact on TGF-β receptor expression and SMAD2/3 activity. […] Indole and 5-HI were also assessed for impact on IL-6 receptor levels and subsequent STAT3 activity.

## c1ccc2[nH]ccc2c1 [Indole, indole]
NF-κB
  NF-κB activation and indicators of inflammation: inhibits NF-κB activation and attenuates indicators of inflammation
CD4+ CD25− naïve T cells [1]; 1 mM indole, Th17-skewing conditions, solvent control 13.5%
  expansion of Th17 cells (proportion): 1.4%
CD4+ CD25− naïve T cells [1]; Th17 skewing conditions
  % IL-17+ cells, indole added to butyrate and 5-HI: generally reversed after conditioning with indole
  effect on % IL-17+ cells / Th17 differentiation: significantly decreased the % of IL-17+ cells
CD4+ CD25− naïve T cells [1]; Th17 skewing conditions, vs 5-HI alone
  % IL-17+ cells, indole combined with 5-HI: not just negated, but actually reversed
CD4+ CD25− naïve T cells [1]; Th17 skewing conditions, listed as indole
  effect on % IL-17+ cells / Th17 differentiation: dose-dependent; also recorded: inhibits a Th17 response; also recorded: inhibits the development of illustrates % IL-17+ cells
CD4+ CD25− naïve T cells [1]; unpublished data
  Rorγt expression in Th17 cells: inhibits Rorγt expression in Th17 cells
CD4+ CD25− naïve T cells [1]; vs solvent control
  level of IL-17 expression (MFI): decreased
[2]
  % IL-17+ in wild-type vs AhR KO T cells: decreased significantly more in wild-type over AhR KO T cells
  AhR dependence of effects (AhR knockout mice, unpublished data): some of the effects of indole are not AhR dependent
[2]; increasing amounts of test substance
  FoxP3+ % in wild-type vs AhR KO T cells: increased significantly more in wild-type over AhR KO T cells
[2]; with or without RA
  expression of CD62L and α4β7 in FoxP3+ wild-type or AhR KO T cells: roughly equivalent with only minor differences
DSS colitis
  colitis (mouse weight as measure of inflammation): inhibits colitis in a T-cell-dependent manner
mTOR
  % P-S6 (mTOR activation): significantly reduced
CD4+ CD25− naïve T cells [3]
  effect on % Th2 cells (IL-4+): no effect; also recorded: did not influence the development of Th1 and Th2 cells
IL-6 receptor / pSTAT3
  % IL-6 receptor+ cells: decrease
  % pSTAT3+ cells / IL-6 induced stat3: decrease

Reference: patent US20190032014A1, “USING MICROBIOTA METABOLITES TO DIFFERENTIATE NAÏVE T-CELLS AND RELATED METHODS TO INDUCE OR PREVENT INFLAMMATORY CONDITIONS” (THE TEXAS A&M UNIVERSITY SYSTEM, priority 2016, published 2019)
